From US20050215543A1, “Methods of treating HIV infection” (priority 2004, published 2005)

Test system: HIV-1 LAI
Assay: microbe, parasite or virus in culture
Details: for EC50: Human immunodeficiency virus 1, MT2, 120 h; for Combination Indices at % HIV Inhibition (Confidence Interval) 50%: 50% HIV inhibition; for Combination Indices at % HIV Inhibition (Confidence Interval) 50% / Combination Indices at % HIV Inhibition (Confidence Interval) 75% / Combination Indices at % HIV Inhibition (Confidence Interval) 90%: 95% CI in parenthesis; for Combination Indices at % HIV Inhibition (Confidence Interval) 75%: 75% HIV inhibition; for Combination Indices at % HIV Inhibition (Confidence Interval) 90%: 90% HIV inhibition; for Overall Result: two-drug combination with Compound 1, all ratios and effect levels, MT-2/HIV-1 LAI, RT assay
Procedure: Virus and cell lines. The T-cell lines, MT-2 and PM-1 were obtained through the AIDS Research and Reference Reagent Program, NIAID, and were contributed by Dr. D. Richman and Dr. R. Gallo, respectively. Both cell lines were cultured in RPMI 1640 medium supplemented with 10% fetal bovine serum, 2 mM L-glutamine and sub-cultured twice a week. The LAI strain of HIV-1 was obtained from the Fred Hutchinson Cancer Research Center, and the Bal strain was from NIH. Both virus stocks were amplified and titered in MT-2 cells (LAI) and PM-1 cells (Bal) using a virus infectivity assay.
Drug Susceptibility and Cytotoxicity Assays. For drug susceptibility assays, MT-2 cells were infected with HIV-1 LAI (or PM-1 cells with HIV-1 Bal) at an MOI of 0.005, and seeded into 96-well microtiter plates (0.1×10^6 cells/ml) containing serial dilutions of test compounds. […] Each drug ratio consisted of an array of 3-fold serial dilutions, and was performed in quadruplicate. The plates were incubated at 37° C./5% CO2. The MT-2 cells infected with HIV-1 LAI were incubated for 5 days. On day-five post-infection, 20 μl from each well was harvested and quantitated by a reverse transcriptase (RT) assay, or in samples involving non-nucleoside RT inhibitors, an MTS assay. The PM-1 cells infected with HIV-1 Bal and used for studying the combinations with CCR5 inhibitors were incubated for six days. On day-six post-infection, 20 μl from each well was harvested, 20- and 50-fold diluted and quantitated by p24 assay. Cytotoxicity assays were performed using uninfected cells, exposed to the same drug combinations, and incubated for six days. Cell viability was determined by an XTT assay. The CC50 values were calculated by using the exponential form of the median effect equation as mentioned below for calculation of EC50.
Analysis of Drug Combination Effects. For determination of CI values, drugs were diluted in a fixed ratio and multiple ratios were analyzed. The drug serial dilutions spanned a range of concentrations near the EC50 value of each compound, so that equivalent antiviral activities could be compared. Concentration-response curves were estimated for each individual drug and every combination using the median-effect equation. The equation was fit using a nonlinear regression routine (Proc Nlin) in PC SAS version 8.01 (SAS Institute Inc., SAS Version 8.01, Cary, N.C.: SAS Institute Inc., 1990).
In this equation, Fa stands for “fraction affected,” and represents the fraction of the viral load that has been inactivated. […] ED50 is drug concentration that is expected to reduce the amount of virus by 50%, and m is a parameter that reflects the slope of the concentration-response curve.
To assess antiviral effects of different drug combination treatments, combination indices (CIs) were calculated according to Chou and Rideout. The combination index was computed as CI=[D]1/[Dm]1+[D]2/[Dm]2
In this equation [Dm]1 and [Dm]2 are the concentrations of drugs that would individually produce a specific level of effect, while [D]1 and [D]2 are the concentrations of drugs in combination that would produce the same level of effect.
Theoretically, additivity is implied if the CI is equal to one, synergy if the CI is less than one, and antagonism if the CI is greater than one. […] At best, we can construct a range that contains the likely values for the CI, given the noise in the data. In this report, these ranges are reported in parentheses next to each point estimate of the CI. […] If the range fell entirely above 1.0, we would infer antagonistic behavior. If the range were to include 1.0, we would infer additivity.
In carrying out the combination experiments below, the EC50 for Compound 1 and each comparator compound was determined during the course of each study, and used in the subsequent data analysis.

[1] = combination with Compound 1, EC50 ratio 1:1 (Compound 1:comparator)
[2] = combination with Compound 1, EC50 ratio 1:1
[3] = combination with Compound 1, EC50 ratio 1:2.5
[4] = combination with Compound 1, EC50 ratio 2.5:1

SMILES | EC50 [nM] | Combination Indices at % HIV Inhibition (Confidence Interval) 50% [1] | Combination Indices at % HIV Inhibition (Confidence Interval) 75% [2] | Combination Indices at % HIV Inhibition (Confidence Interval) 90% [2] | Combination Indices at % HIV Inhibition (Confidence Interval) 50% [3] | Combination Indices at % HIV Inhibition (Confidence Interval) 75% [3] | Combination Indices at % HIV Inhibition (Confidence Interval) 90% [3] | Combination Indices at % HIV Inhibition (Confidence Interval) 50% [4] | Combination Indices at % HIV Inhibition (Confidence Interval) 75% [4] | Combination Indices at % HIV Inhibition (Confidence Interval) 90% [4] | Overall Result | Overall Result (listed as nelfinavir) | Overall Result (listed as emtricitabine) | Overall Result (listed as amprenavir) | Overall Result (listed as stavudine)
Cc1c(O)cccc1C(=O)N[C@@H](CSc1ccccc1)[C@H](O)CN1C[C@H]2CCCC[C@H]2C[C@H]1C(=O)NC(C)(C)C [Nelfinavir, nelfinavir] | 22 | 0.66 (0.60, 0.73) | 0.78 (0.67, 0.88) | 0.91 (0.71, 1.10) | 0.29 (0.31, 0.46) | 0.62 (0.45, 0.79) | 0.99 (0.57, 1.41) | 0.77 (0.69, 0.86) | 0.69 (0.62, 0.77) | 0.62 (0.49, 0.75) | Moderate | moderate synergy | – | – | –
Nc1nc(=O)n([C@@H]2CS[C@H](CO)O2)cc1F [Emtricitabine, emtricitabine] | 34 | 0.57 (0.49, 0.64) | 0.33 (0.27, 0.39) | 0.19 (0.14, 0.24) | 0.38 (0.31, 0.45) | 0.48 (0.36, 0.60) | 0.60 (0.36, 0.84) | 0.17 (0.15, 0.19) | 0.21 (0.17, 0.25) | 0.26 (0.18, 0.34) | Synergistic | – | consistent synergy at all effective levels and concentration ratios | – | –
CC(C)CN(C[C@@H](O)[C@H](Cc1ccccc1)NC(=O)O[C@H]1CCOC1)S(=O)(=O)c1ccc(N)cc1 [Amprenavir, amprenavir] | 21 | 0.89 (0.73, 1.06) | 0.93 (0.68, 1.17) | 0.96 (0.57, 1.36) | 1.30 (0.84, 1.76) | 1.08 (0.55, 1.62) | 0.90 (0.20, 1.60) | 0.41 (0.34, 0.48) | 0.32 (0.25, 0.40) | 0.25 (0.16, 0.35) | Additive- | – | – | additive to synergistic | –
CC[C@H](C)[C@H](NC(=O)[C@H](CCC(N)=O)NC(=O)[C@H](C)NC(=O)[C@H](CCC(N)=O)NC(=O)[C@H](CCC(=O)O)NC(=O)[C@H](CC(C)C)NC(=O)[C@H](CC(C)C)NC(=O)[C@H](C)NC(=O)[C@@H](NC(=O)[C@@H](NC(=O)[C@H](CCCCN)NC(=O)[C@H](CCC(N)=O)NC(=O)[C@H](CCC(=O)O)NC(=O)[C@H](Cc1c[nH]c2ccccc12)NC(=O)[C@H](CCC(=O)O)NC(=O)[C@H](CCC(N)=O)NC(=O)[C@H](Cc1c[nH]c2ccccc12)NC(C)=O)[C@@H](C)CC)[C@@H](C)O)C(=O)N[C@@H](CCC(N)=O)C(=O)N[C@@H](CCC(N)=O)C(=O)N[C@@H](CCC(=O)O)C(=O)N[C@@H](CCCCN)C(=O)N[C@@H](CC(N)=O)C(=O)N[C@@H](CCC(=O)O)C(=O)N[C@@H](Cc1ccc(O)cc1)C(=O)N[C@@H](CCC(=O)O)C(=O)N[C@@H](CC(C)C)C(=O)N[C@@H](CCC(N)=O)C(=O)N[C@@H](CCCCN)C(=O)N[C@@H](CC(C)C)C(=O)N[C@@H](CC(=O)O)C(=O)N[C@@H](CCCCN)C(=O)N[C@@H](Cc1c[nH]c2ccccc12)C(=O)N[C@@H](C)C(=O)N[C@@H](CO)C(=O)N[C@@H](CC(C)C)C(=O)N[C@@H](Cc1c[nH]c2ccccc12)C(=O)N[C@@H](CCC(=O)O)C(=O)N[C@@H](Cc1c[nH]c2ccccc12)C(=O)N[C@@H](Cc1ccccc1)C(N)=O [Compound T-1249] | – | 0.25 (0.20, 0.30) | 0.14 (0.10, 0.19) | 0.08 (0.04, 0.12) | 0.32 (0.28 0.35) | 0.17 (0.14, 0.19) | 0.09 (0.06, 0.11) | 0.19 (0.17, 0.22) | 0.14 (0.12, 0.16) | 0.10 (0.08, 0.13) | – | – | – | – | –
Cc1cn([C@H]2C=C[C@@H](CO)O2)c(=O)[nH]c1=O [Stavudine, stavudine] | 250 | 1.47 (1.16, 1.79) | 0.60 (0.42, 0.78) | 0.25 (0.13, 0.38) | 0.50 (0.37, 0.64) | 0.29 (0.18, 0.40) | 0.18 (0.07, 0.28) | 0.69 (0.47, 0.91) | 0.55 (0.30, 0.80) | 0.45 (0.12, 0.78) | Additive- | – | – | – | additive-synergistic
COc1ncc(OC)c2c(C(=O)C(=O)N3CCN(C(=O)c4ccccc4)CC3)c[nH]c12 [Compound 1, 1-benzoyl-4-[2-(4,7-dimethoxy-1H-pyrrolo[2,3-c]pyridin-3-yl)-1,2-dioxoethyl]-piperazine] | 1 to 4 | – | – | – | – | – | – | – | – | – | – | – | – | – | –
c1cc(CN2CCCNCCNCCCNCC2)ccc1CN1CCCNCCNCCCNCC1 [AMD-3100] | 8 | 0.40 (0.34, 0.46) | 0.27 (0.21, 0.33) | 0.18 (0.12, 0.24) | 0.25 (0.21, 0.29) | 0.14 (0.11, 0.17) | 0.08 (0.05, 0.10) | 0.15 (0.11, 0.20) | 0.28 (0.18, 0.38) | 0.51 (0.20, 0.83) | – | – | – | – | –
